Test systems include U-251; IGROV-1; OVCAR-4; CCRF-CEM; SNB-78; HL-60; K562; SN12C; SF-295; LOX IMVI; 786-0; RXF 393; KM12; A549; MOLT-4; NCI/ADR-RES; MDA-N; HCC 2998; MDA-MB-435; CAKI-1.
Assay in all cases: NCI-60 cell line screen, 48 h

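1) Cells in 96-well plates. 2) Compound, 48 h, 5 concentrations. 3) Linear interpolation between surrounding doses. 4) Unreached endpoint = highest concentration. GI50: concentration for 50% inhibition of growth.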 The source made the active and inactive calls. Rule as the data show it: active = GI50 up to about 1.1 µM and inactive = higher.

In the case of `O=C(NN1C(=O)C(Cl)C1c1ccc(O)cc1)c1ccccc1O` (configuration not stated), the GI50 in the assay on U-251 is 14.3 µM (inactive); in the assay with IGROV-1 it was 14 µM (inactive); in the assay on OVCAR-4, 23.7 µM (inactive); with CCRF-CEM, 7.11 µM (inactive); in the assay with SNB-78, 21.7 µM (inactive); in the assay on HL-60, 25.2 µM (inactive). Besides, the GI50 with K562 was 22.4 µM (inactive); in the assay with SN12C it was 23 µM (inactive); in the assay on SF-295, 16.6 µM (inactive); in the assay on LOX IMVI it was 16.7 µM (inactive); with 786-0, 18.7 µM (inactive); in the assay on RXF 393 it was 13.1 µM (inactive). For the same compound, the results for the GI50 in the assay with KM12, in the assay with A549 and in the assay on MOLT-4 were 14 µM (inactive), 22.4 µM (inactive) and 27.6 µM (inactive), respectively.
`O=C(O)c1nn[nH]c1S`: the GI50 in the assay on U-251, in the assay with IGROV-1, in the assay with OVCAR-4, in the assay with CCRF-CEM, with NCI/ADR-RES and with HL-60 was > 100 µM (inactive) throughout. Also, the GI50 in the assay with K562, in the assay with SN12C, in the assay with SF-295, with MDA-N, with LOX IMVI and with HCC 2998 was > 100 µM (inactive) throughout. Moreover, the GI50 in the assay with 786-0, in the assay on RXF 393, with KM12, in the assay on A549, in the assay with MDA-MB-435 and in the assay with CAKI-1 was > 100 µM (inactive) each time. Further, in the assay on MOLT-4, the GI50 is > 100 µM (inactive).
As to `BrCC[N+]12CC[N+](CCBr)(CC1)C2`, the GI50 with U-251, with IGROV-1, in the assay with OVCAR-4, in the assay on CCRF-CEM, with NCI/ADR-RES and in the assay with HL-60 was > 100 µM (inactive) in each case. The GI50 in the assay with K562, in the assay on SN12C, with SF-295, with MDA-N, in the assay on LOX IMVI and in the assay on HCC 2998 was > 100 µM (inactive) each time. Moreover, the GI50 in the assay on 786-0, in the assay with RXF 393, with KM12, in the assay on A549, with MDA-MB-435 and in the assay with CAKI-1 was > 100 µM (inactive) throughout. The GI50 with MOLT-4 was > 100 µM (inactive).
In the case of `COc1ccc(C2=NN(C(=O)c3ccc(Cl)cc3)C(O)(c3cc(F)c(Cl)cc3Cl)C2)cc1` (configuration not stated), the GI50 is > 100 µM (inactive) with U-251; > 100 µM (inactive) in the assay with IGROV-1; 8.61 µM (inactive) with OVCAR-4; 50.2 µM (inactive) with CCRF-CEM; 48.3 µM (inactive) with NCI/ADR-RES; 51.5 µM (inactive) with HL-60. Further, the GI50 with K562 was 40.6 µM (inactive); with SN12C, 39.1 µM (inactive); in the assay on SF-295, > 100 µM (inactive); in the assay with MDA-N, 22.4 µM (inactive); in the assay with LOX IMVI it was 77.8 µM (inactive); with HCC 2998 it was 43.5 µM (inactive). The GI50 in the assay on 786-0 is > 100 µM (inactive); in the assay on RXF 393, > 100 µM (inactive); in the assay with KM12 it was 24.5 µM (inactive); with A549, 49.2 µM (inactive); in the assay on MDA-MB-435, 18.6 µM (inactive); in the assay with CAKI-1 it was 27.4 µM (inactive). Also, in the assay with MOLT-4, the GI50 was 12.8 µM (inactive).
With `[Se]=P(c1ccccc1)(c1ccccc1)c1ccc(C(c2ccccc2)=P(c2ccccc2)(c2ccccc2)c2ccccc2)cc1`, the GI50 in the assay with U-251 was 0.385 µM (active); in the assay on IGROV-1 it was 0.773 µM (active); in the assay on OVCAR-4, 0.443 µM (active); in the assay with CCRF-CEM it was 0.495 µM (active); with NCI/ADR-RES it was 7.67 µM (inactive); in the assay on HL-60 it was 0.0881 µM (active). Besides, the GI50 was 0.182 µM (active) in the assay on K562; 1.23 µM (inactive) in the assay with SN12C; 2.27 µM (inactive) in the assay with SF-295; 0.753 µM (active) in the assay with MDA-N; 0.807 µM (active) with LOX IMVI; 0.979 µM (active) with HCC 2998. For the same compound, the GI50 in the assay with 786-0 was 1.2 µM (inactive); with RXF 393, 1.57 µM (inactive); in the assay with KM12, 0.439 µM (active); in the assay with A549 it was 1.44 µM (inactive); in the assay on MDA-MB-435, 0.671 µM (active); in the assay with CAKI-1, 2.3 µM (inactive). For the same compound, the GI50 in the assay on MOLT-4 is 1.32 µM (inactive).
On to `O=C1c2ccccc2C(=O)N1C/C=N/NS(=O)(=O)c1ccc2ccccc2c1`, for which the GI50 with U-251, in the assay with IGROV-1, with OVCAR-4, in the assay with CCRF-CEM, in the assay with SNB-78 and with HL-60 was > 100 µM (inactive) throughout. Moreover, the GI50 with K562, in the assay with SN12C, with SF-295, in the assay on HCC 2998, with 786-0 and in the assay on KM12 was > 100 µM (inactive) in each case. The GI50 with A549, with CAKI-1 and in the assay on MOLT-4 was > 100 µM (inactive) in each case.
Consider `Cn1c(=O)n(CC(Br)CBr)c(=O)n(CC(Br)CBr)c1=O` (configuration not stated), for which the GI50 in the assay on U-251 is 43.3 µM (inactive); in the assay on IGROV-1, 39.9 µM (inactive); in the assay with OVCAR-4, 66.2 µM (inactive); in the assay with CCRF-CEM it was 22.7 µM (inactive); with NCI/ADR-RES, 40.5 µM (inactive); in the assay on HL-60, 20.4 µM (inactive). Besides, the GI50 is 32.5 µM (inactive) in the assay with K562; 26 µM (inactive) with SN12C; 45 µM (inactive) with SF-295; 28.8 µM (inactive) in the assay with MDA-N; 18.4 µM (inactive) in the assay with LOX IMVI; 28.4 µM (inactive) with HCC 2998. Moreover, the GI50 in the assay on 786-0 was 38.1 µM (inactive); in the assay with RXF 393 it was 32.8 µM (inactive); in the assay on KM12, 48.9 µM (inactive); in the assay on A549 it was 40.3 µM (inactive); in the assay with MDA-MB-435, 29.9 µM (inactive); with CAKI-1, 85.3 µM (inactive). In addition, the GI50 with MOLT-4 is 26.3 µM (inactive).
Regarding `COc1cccc2ccc(C(=O)c3ccccc3)nc12`, the GI50 in the assay with U-251 is > 100 µM (inactive); in the assay on IGROV-1, > 100 µM (inactive); with OVCAR-4 it was > 100 µM (inactive); in the assay with CCRF-CEM, 79.4 µM (inactive); with SNB-78, > 100 µM (inactive); in the assay with K562, > 100 µM (inactive). Moreover, the GI50 in the assay with SN12C, in the assay with SF-295, with LOX IMVI, in the assay with HCC 2998, with 786-0 and in the assay with KM12 was > 100 µM (inactive) in each case. The GI50 in the assay with A549, in the assay on CAKI-1 and with MOLT-4 was > 100 µM (inactive) in each case.
Take `CN(C)CCCC12CCCCC1=Nc1ccccc12` (configuration not stated): the GI50 in the assay on U-251 was > 100 µM (inactive); in the assay with IGROV-1 it was > 100 µM (inactive); in the assay with OVCAR-4, > 100 µM (inactive); in the assay on CCRF-CEM, 76.6 µM (inactive); with NCI/ADR-RES, > 100 µM (inactive); in the assay with HL-60, 26.1 µM (inactive). Besides, the GI50 in the assay on K562 is 74 µM (inactive); in the assay on SN12C it was > 100 µM (inactive); with SF-295, > 100 µM (inactive); in the assay on MDA-N it was > 100 µM (inactive); in the assay on LOX IMVI it was > 100 µM (inactive); in the assay on HCC 2998, > 100 µM (inactive). The GI50 with 786-0 was > 100 µM (inactive); in the assay with RXF 393, > 100 µM (inactive); with KM12, > 100 µM (inactive); in the assay on A549, > 100 µM (inactive); in the assay on MDA-MB-435, 94.6 µM (inactive); in the assay with CAKI-1, > 100 µM (inactive). In the assay with MOLT-4, the GI50 was > 100 µM (inactive).
Consider `SC1=Nc2ccccc2-c2nc(-c3cccc(Cl)c3)cc(-c3ccccc3)c2C1`, for which the GI50 in the assay with U-251 was 1.19 µM (inactive); in the assay on IGROV-1, 0.678 µM (active); in the assay with OVCAR-4, 0.347 µM (active); in the assay on CCRF-CEM, 2.36 µM (inactive); in the assay with NCI/ADR-RES, 2.04 µM (inactive); in the assay with HL-60, 15 µM (inactive). In addition, the GI50 in the assay with K562 is 4.86 µM (inactive); with SN12C, 2.08 µM (inactive); with SF-295, 3.37 µM (inactive); with MDA-N it was 3.48 µM (inactive); with LOX IMVI, 3.15 µM (inactive); in the assay with HCC 2998 it was 3.24 µM (inactive). The GI50 in the assay with 786-0 was 0.971 µM (active); with RXF 393, 2.81 µM (inactive); in the assay on KM12, 4.53 µM (inactive); with A549 it was 1.75 µM (inactive); with MDA-MB-435, 9.02 µM (inactive); with CAKI-1 it was 2 µM (inactive). The GI50 in the assay with MOLT-4 is 19.6 µM (inactive).
`O=c1c(C(c2ccc3ccccc3c2)c2c(O)oc3ccccc3c2=O)c(O)oc2ccccc12`: the GI50 in the assay with U-251 was 16.6 µM (inactive); with IGROV-1, 30.8 µM (inactive); in the assay on OVCAR-4 it was 26.7 µM (inactive); with CCRF-CEM, 46.5 µM (inactive); in the assay on NCI/ADR-RES, 17.9 µM (inactive); with HL-60, 34 µM (inactive). Moreover, the GI50 was 50.6 µM (inactive) in the assay with K562; 20.6 µM (inactive) in the assay with SN12C; 50.4 µM (inactive) with SF-295; 27.4 µM (inactive) with MDA-N; 34.6 µM (inactive) with LOX IMVI; 17.9 µM (inactive) in the assay with HCC 2998. The GI50 with 786-0 was 25.6 µM (inactive); in the assay with RXF 393, 46.7 µM (inactive); in the assay on KM12, 18.1 µM (inactive); with A549, 33 µM (inactive); in the assay on MDA-MB-435, 24.9 µM (inactive); with CAKI-1, 22.9 µM (inactive). In addition, the GI50 in the assay with MOLT-4 is 22.4 µM (inactive).

Source of the values: ChEMBL document CHEMBL1201862, “PubChem BioAssay data set” (2004).
